Data taken from PubChem BioAssay (NCI).
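Growth conditions: 96-well plates. Treatment: test compound, 48 hours, 5 concentrations. Analysis: linear interpolation between bracketing concentrations; unreached endpoints set to highest concentration. At the GI50, growth is halved. Definition used: TGI = concentration required for complete inhibition of growth.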

Legend:
Test in all cases: NCI tumour cell line growth inhibition, 48 h
[1] = test system: A498 renal
[2] = test system: HT29 colon
[3] = test system: MALME-3M melanoma
[4] = test system: UACC-62 melanoma
[5] = test system: MDA-MB-231 breast
[6] = test system: UO-31 renal
[7] = test system: K-562 leukemia
[8] = test system: KM12 colon
[9] = test system: BT-549 breast
[10] = test system: SK-MEL-28 melanoma
[11] = test system: LOX IMVI melanoma
[12] = test system: NCI-H226 lung
[13] = test system: OVCAR-4 ovarian
[14] = test system: SF-268 CNS
[15] = test system: HOP-92 NSCLC
[16] = test system: UACC-257 melanoma
[17] = test system: EKVX NSCLC
[18] = test system: OVCAR-5 ovarian
[19] = test system: DU-145 prostate
[20] = test system: 786-0 renal
[21] = test system: SNB-19 CNS
[22] = test system: NCI-H522 lung
[23] = test system: TK-10 renal
[24] = test system: CAKI-1 renal
[25] = test system: SK-MEL-5 melanoma
[26] = test system: RXF 393 renal
[27] = test system: SK-MEL-2 melanoma
[28] = test system: HOP-62 NSCLC
[29] = test system: HS 578T breast
[30] = test system: SK-OV-3 ovarian
[31] = test system: T-47D breast
[32] = test system: NCI/ADR-RES ovarian
[33] = test system: MOLT-4 leukemia
[34] = test system: SNB-75 CNS
[35] = test system: A549 NSCLC
[36] = test system: SN12C renal
[37] = test system: IGROV1 ovarian
[38] = test system: PC-3 prostate
[39] = test system: NCI-H460 lung
[40] = test system: HCT-15 colon
[41] = test system: NCI-H23 lung
[42] = test system: SW-620 colon
[43] = test system: HCT-116 colon
[44] = test system: SF-539 CNS
[45] = test system: HCC-2998 colon
[46] = test system: M14 melanoma
[47] = test system: MDA-MB-468 breast
[48] = test system: SR leukemia
[49] = test system: OVCAR-3 ovarian
[50] = test system: U251 CNS
[51] = test system: SF-295 CNS
[52] = test system: RPMI-8226 leukemia
[53] = test system: OVCAR-8 ovarian
[54] = test system: ACHN renal
[55] = test system: HL-60(TB) leukemia
[56] = test system: MCF7 breast
[57] = test system: COLO 205 colon
[58] = test system: MDA-MB-435
[59] = test system: CCRF-CEM leukemia

O=C(NO)c1ccc(CNC(=O)[C@H]2Cc3c([nH]c4ccccc34)[C@H](c3ccccc3)N2)cc1
GI50 [1]: 2.46 µM | TGI [1]: 11.7 µM | GI50 [2]: 3.29 µM | TGI [2]: 18 µM | GI50 [3]: 0.545 µM | TGI [3]: > 23.7 µM | GI50 [4]: 1.13 µM | TGI [4]: 4.64 µM | GI50 [5]: 3.53 µM | TGI [5]: 12.4 µM | GI50 [6]: 5.58 µM | TGI [6]: > 23.7 µM | GI50 [7]: 1.38 µM | TGI [7]: > 23.7 µM | GI50 [8]: 5.01 µM | TGI [8]: > 23.7 µM | GI50 [9]: 14.2 µM | TGI [9]: > 23.7 µM | GI50 [10]: 3.13 µM | TGI [10]: 22 µM | GI50 [11]: 3.35 µM | TGI [11]: 6.43 µM | GI50 [12]: 2.7 µM | TGI [12]: > 23.7 µM | GI50 [13]: 8.3 µM | TGI [13]: > 23.7 µM | GI50 [14]: 5.5 µM | TGI [14]: > 23.7 µM | GI50 [15]: 1.59 µM | TGI [15]: 12.4 µM | GI50 [16]: 1.43 µM | TGI [16]: 15.9 µM | GI50 [17]: 8.42 µM | TGI [17]: > 23.7 µM | GI50 [18]: 1.42 µM | TGI [18]: 6.84 µM | GI50 [19]: 4.06 µM | TGI [19]: > 23.7 µM | GI50 [20]: 9.15 µM | TGI [20]: > 23.7 µM | GI50 [21]: 5.19 µM | TGI [21]: > 23.7 µM | GI50 [22]: 0.685 µM | TGI [22]: 5.64 µM | GI50 [23]: 2.88 µM | TGI [23]: 19.2 µM | GI50 [24]: 5.69 µM | TGI [24]: 16.6 µM | GI50 [25]: 2.66 µM | TGI [25]: 5.93 µM | GI50 [26]: 1.92 µM | TGI [26]: 6.54 µM | GI50 [27]: 3.66 µM | TGI [27]: 14.6 µM | GI50 [28]: 3.6 µM | TGI [28]: 13.1 µM | GI50 [29]: 1.38 µM | TGI [29]: 21.8 µM | GI50 [30]: 3.28 µM | TGI [30]: 11.3 µM | GI50 [31]: 1.03 µM | TGI [31]: 9.84 µM | GI50 [32]: 5.72 µM | TGI [32]: > 23.7 µM | GI50 [33]: 0.763 µM | TGI [33]: > 23.7 µM | GI50 [34]: 1.99 µM | TGI [34]: > 23.7 µM | GI50 [35]: 6.77 µM | TGI [35]: > 23.7 µM | GI50 [36]: 5.27 µM | TGI [36]: 23.5 µM | GI50 [37]: 3.71 µM | TGI [37]: 15.2 µM | GI50 [38]: 5.39 µM | TGI [38]: > 23.7 µM | GI50 [39]: 3.59 µM | TGI [39]: > 23.7 µM | GI50 [40]: 11.8 µM | TGI [40]: > 23.7 µM | GI50 [41]: 4.71 µM | TGI [41]: 18.3 µM | GI50 [42]: 2.31 µM | TGI [42]: 7.76 µM | GI50 [43]: 1.13 µM | TGI [43]: > 23.7 µM | GI50 [44]: 3.73 µM | TGI [44]: > 23.7 µM | GI50 [45]: 2.9 µM | TGI [45]: 6.91 µM | GI50 [46]: 5.93 µM | TGI [46]: > 23.7 µM | GI50 [47]: 0.507 µM | TGI [47]: 2.33 µM | GI50 [48]: 0.449 µM | TGI [48]: > 23.7 µM | GI50 [49]: 2.51 µM | TGI [49]: 12.6 µM | GI50 [50]: 2.78 µM | TGI [50]: 12.9 µM | GI50 [51]: 3.34 µM | TGI [51]: 7.89 µM | GI50 [52]: 1.35 µM | TGI [52]: > 23.7 µM | GI50 [53]: 1.43 µM | TGI [53]: > 23.7 µM | GI50 [54]: 5 µM | TGI [54]: 16.2 µM | GI50 [55]: 3 µM | TGI [55]: > 23.7 µM | GI50 [56]: 3.59 µM | TGI [56]: > 23.7 µM | GI50 [57]: 2.36 µM | TGI [57]: 5.57 µM | GI50 [58]: 3.26 µM | TGI [58]: 13.5 µM | GI50 [59]: 0.785 µM | TGI [59]: > 23.7 µM

Cn1cc(-c2cc3nc(-c4c[nH]c5ccc(Cl)cc45)cc(N)n3n2)c2ccccc21
GI50 [1]: 1.6 µM | TGI [1]: 3.37 µM | GI50 [2]: 1.56 µM | TGI [2]: 2.98 µM | GI50 [3]: 1.61 µM | TGI [3]: 2.97 µM | GI50 [4]: 1.63 µM | TGI [4]: 3.06 µM | GI50 [5]: 1.79 µM | TGI [5]: 3.23 µM | GI50 [6]: 1.43 µM | TGI [6]: 2.73 µM | GI50 [7]: 2.58 µM | TGI [7]: 8.07 µM | GI50 [10]: 1.56 µM | TGI [10]: 2.9 µM | GI50 [12]: 1.89 µM | TGI [12]: 5.17 µM | GI50 [13]: 1.91 µM | TGI [13]: 4.15 µM | GI50 [16]: 1.69 µM | TGI [16]: 3.23 µM | GI50 [18]: 1.57 µM | TGI [18]: 3.04 µM | GI50 [19]: 1.84 µM | TGI [19]: 3.32 µM | GI50 [20]: 1.45 µM | TGI [20]: 2.83 µM | GI50 [21]: 1.68 µM | TGI [21]: 3.15 µM | GI50 [22]: 1.6 µM | TGI [22]: 3.23 µM | GI50 [23]: 1.26 µM | TGI [23]: 2.58 µM | GI50 [24]: 1.45 µM | TGI [24]: 2.91 µM | GI50 [25]: 1.67 µM | TGI [25]: 3.1 µM | GI50 [27]: 1.81 µM | TGI [27]: 3.54 µM | GI50 [29]: 1.91 µM | TGI [29]: 4.8 µM | GI50 [30]: 1.91 µM | TGI [30]: 3.88 µM | GI50 [31]: 1.84 µM | TGI [31]: 4.14 µM | GI50 [32]: 2.11 µM | TGI [32]: 4.73 µM | GI50 [33]: 1.62 µM | TGI [33]: 4.18 µM | GI50 [34]: 1.5 µM | TGI [34]: 3.24 µM | GI50 [36]: 1.71 µM | TGI [36]: 3.17 µM | GI50 [37]: 1.57 µM | TGI [37]: 3.13 µM | GI50 [38]: 1.64 µM | TGI [38]: 3.14 µM | GI50 [40]: 1.47 µM | TGI [40]: 2.91 µM | GI50 [43]: 1.62 µM | TGI [43]: 2.98 µM | GI50 [44]: 1.64 µM | TGI [44]: 3.06 µM | GI50 [46]: 1.68 µM | TGI [46]: 3.14 µM | GI50 [48]: 1.66 µM | TGI [48]: 5.1 µM | GI50 [49]: 2.08 µM | TGI [49]: 4.39 µM | GI50 [50]: 1.7 µM | TGI [50]: 3.29 µM | GI50 [52]: 2.62 µM | TGI [52]: 7.21 µM | GI50 [54]: 1.54 µM | TGI [54]: 2.87 µM | GI50 [55]: 2.02 µM | TGI [55]: 4.75 µM | GI50 [57]: 1.8 µM | TGI [57]: 3.35 µM | GI50 [58]: 1.72 µM | TGI [58]: 3.15 µM | GI50 [59]: 3.12 µM | TGI [59]: 11.2 µM
